Values joined by “and” are separate entries in the source; they are usually repeats but may differ in a detail not shown here. Identical values can stand only once.
Key:
[1] = Liquid; for mass density: 293.15 K, 101.33 kPa, Vibrating tube method; for vapor or sublimation pressure: Ebulliometric method (Recirculating still)
[2] = refractive index (Na D-line) (dimensionless); conditions: 293.15 K; 101.33 kPa; Liquid; Standard Abbe refractometry

CC#N [acetonitrile]
Conditions	mass density [kg/m3]	refractive index
[1]	782	–
[2]	–	1.3425

[1]
Conditions	vapor or sublimation pressure
307.22 K	18.08 kPa
311.3 K	21.45 kPa
314.05 K	24 kPa
316.73 K	26.73 kPa
320.8 K	31.35 kPa
323.52 K	34.82 kPa
325.8 K	37.88 kPa
328.95 K	42.59 kPa
330.5 K	45.06 kPa
333.02 K	49.34 kPa
335.2 K	53.31 kPa
338.45 K	59.68 kPa
341.17 K	65.47 kPa
343.43 K	70.59 kPa
346.6 K	78.43 kPa
350.67 K	89.46 kPa
354.75 K	101.64 kPa and 101.3 kPa

C[S+](C)[O-] [dimethyl sulfoxide]
Conditions	mass density [kg/m3]	refractive index
[1]	1101	–
[2]	–	1.4751

[1]
Conditions	vapor or sublimation pressure
401.95 K	15.28 kPa
405.11 K	17.11 kPa
408.75 K	19.42 kPa
411.45 K	21.32 kPa
414.6 K	23.72 kPa
419.36 K	27.76 kPa
421.15 K	29.41 kPa
424.1 K	32.35 kPa
430.45 K	39.43 kPa
433.59 K	43.43 kPa
436.75 K	47.75 kPa
439.92 K	52.42 kPa
442.85 K	57.05 kPa
447.83 K	65.75 kPa
455.74 K	81.72 kPa
463.43 K	101.3 kPa
463.45 K	100.76 kPa and 101.3 kPa

O [water]
[1]
Conditions	vapor or sublimation pressure
320.37 K	10.74 kPa
324.33 K	13.09 kPa
326.63 K	14.66 kPa
328.29 K	15.86 kPa
333.57 K	20.33 kPa
340.16 K	27.37 kPa
343.85 K	32.16 kPa
345.44 K	34.4 kPa
347.83 K	38.07 kPa
349.4 K	40.62 kPa
351.8 K	44.82 kPa
354.68 K	50.37 kPa
358.64 K	58.91 kPa
361.08 K	64.72 kPa
362.59 K	68.63 kPa
367.87 K	83.63 kPa
373.15 K	101.31 kPa and 101.3 kPa

Conditions	refractive index
[2]	1.3312

Reference: the NIST ThermoML archive (doi:10.1021/je400531a)
